# What was measured:
# Experiment in all cases: relative viability (nuclei count vs DMSO), 5 days (fraction); higher = more cells survive
# A-427 = test system: A-427
# How it was run: (§1)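 Five library-drug doses in √10 steps were combined with a fixed anchor-drug dose, or a single drug was given alone, by pin tool to lung cancer cell lines in 1536-well plates the day after seeding. Nuclei were stained and counted after 5 days. Relative viability is the nuclei count in treated wells over that in vehicle wells, taken as the median of duplicate plates.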
# COR-L 105 = test system: COR-L 105
# How it was run: as §1
# EPLC-272H = test system: EPLC-272H
# How it was run: as §1
# HCC-366 = test system: HCC-366
# How it was run: as §1
# HCC-78 = test system: HCC-78
# How it was run: as §1
# HOP-62 = test system: HOP-62
# How it was run: as §1
# LC-2-ad = test system: LC-2-ad
# How it was run: as §1
# LCLC-97TM1 = test system: LCLC-97TM1
# How it was run: as §1
# LU99A = test system: LU99A
# How it was run: as §1
# LXF-289 = test system: LXF-289
# How it was run: as §1
# NCI-H1755 = test system: NCI-H1755
# How it was run: as §1
# NCI-H1792 = test system: NCI-H1792
# How it was run: as §1
# NCI-H1915 = test system: NCI-H1915
# How it was run: as §1
# NCI-H1975 = test system: NCI-H1975
# How it was run: as §1
# NCI-H2085 = test system: NCI-H2085
# How it was run: as §1
# NCI-H460 = test system: NCI-H460
# How it was run: as §1
# SK-LU-1 = test system: SK-LU-1
# How it was run: as §1
# UMC-11 = test system: UMC-11
# How it was run: as §1
smiles,measurement,setting,value
O=C(O)c1ccc(-c2c[nH]c3ncc(-c4ccccc4)cc23)cc1C1CCCC1 + CC(C)C[C@H](NC(=O)[C@H](Cc1ccccc1)NC(=O)c1cnccn1)B(O)O [Bortezomib] (partner 0.002 µM),relative viability,A-427; first compound 0.04 µM,0.947
same,relative viability,A-427; first compound 0.1265 µM,0.949
same,relative viability,A-427; first compound 0.4 µM,1.07
same,relative viability,A-427; first compound 1.265 µM,0.849
same,relative viability,COR-L 105; first compound 0.04 µM,0.775
same,relative viability,COR-L 105; first compound 0.1265 µM,0.78
same,relative viability,COR-L 105; first compound 0.4 µM,0.788
same,relative viability,COR-L 105; first compound 1.265 µM,0.819
same,relative viability,EPLC-272H; first compound 0.04 µM,0.755
same,relative viability,EPLC-272H; first compound 0.1265 µM,1.13
same,relative viability,EPLC-272H; first compound 0.4 µM,0.931
same,relative viability,EPLC-272H; first compound 1.265 µM,1.01
same,relative viability,HCC-366; first compound 0.04 µM,1.05
same,relative viability,HCC-366; first compound 0.1265 µM,1.12
same,relative viability,HCC-366; first compound 0.4 µM,1.03
same,relative viability,HCC-366; first compound 1.265 µM,1.06
same,relative viability,HCC-78; first compound 0.04 µM,0.477
same,relative viability,HCC-78; first compound 0.1265 µM,0.473
same,relative viability,HCC-78; first compound 0.4 µM,0.436
same,relative viability,HCC-78; first compound 1.265 µM,0.495
same,relative viability,HOP-62; first compound 0.04 µM,1.01
same,relative viability,HOP-62; first compound 0.1265 µM,0.725
same,relative viability,HOP-62; first compound 0.4 µM,0.93
same,relative viability,HOP-62; first compound 1.265 µM,0.886
same,relative viability,LC-2-ad; first compound 0.04 µM,1.04
same,relative viability,LC-2-ad; first compound 0.1265 µM,1.1
same,relative viability,LC-2-ad; first compound 0.4 µM,1.02
same,relative viability,LC-2-ad; first compound 1.265 µM,0.779
same,relative viability,LCLC-97TM1; first compound 0.04 µM,0.835
same,relative viability,LCLC-97TM1; first compound 0.1265 µM,1.03
same,relative viability,LCLC-97TM1; first compound 0.4 µM,0.763
same,relative viability,LCLC-97TM1; first compound 1.265 µM,0.403
same,relative viability,LU99A; first compound 0.04 µM,1.19
same,relative viability,LU99A; first compound 0.1265 µM,1.08
same,relative viability,LU99A; first compound 0.4 µM,1.06
same,relative viability,LU99A; first compound 1.265 µM,0.816
same,relative viability,LXF-289; first compound 0.04 µM,0.969
same,relative viability,LXF-289; first compound 0.1265 µM,0.944
same,relative viability,LXF-289; first compound 0.4 µM,0.8
same,relative viability,LXF-289; first compound 1.265 µM,0.568
same,relative viability,NCI-H1755; first compound 0.04 µM,1.01
same,relative viability,NCI-H1755; first compound 0.1265 µM,0.732
same,relative viability,NCI-H1755; first compound 0.4 µM,0.997
same,relative viability,NCI-H1755; first compound 1.265 µM,0.924
same,relative viability,NCI-H1792; first compound 0.04 µM,0.933
same,relative viability,NCI-H1792; first compound 0.1265 µM,1.13
same,relative viability,NCI-H1792; first compound 0.4 µM,1.04
same,relative viability,NCI-H1792; first compound 1.265 µM,0.912
same,relative viability,NCI-H1915; first compound 0.04 µM,0.957
same,relative viability,NCI-H1915; first compound 0.1265 µM,0.949
same,relative viability,NCI-H1915; first compound 0.4 µM,0.957
same,relative viability,NCI-H1915; first compound 1.265 µM,0.789
same,relative viability,NCI-H1975; first compound 0.04 µM,0.344
same,relative viability,NCI-H1975; first compound 0.1265 µM,0.391
same,relative viability,NCI-H1975; first compound 0.4 µM,0.335
same,relative viability,NCI-H1975; first compound 1.265 µM,0.195
same,relative viability,NCI-H2085; first compound 0.04 µM,1.08
same,relative viability,NCI-H2085; first compound 0.1265 µM,1.07
same,relative viability,NCI-H2085; first compound 0.4 µM,1.02
same,relative viability,NCI-H2085; first compound 1.265 µM,0.896
same,relative viability,NCI-H460; first compound 0.04 µM,1.07
same,relative viability,NCI-H460; first compound 0.1265 µM,1.4
same,relative viability,NCI-H460; first compound 0.4 µM,0.999
same,relative viability,NCI-H460; first compound 1.265 µM,0.939
same,relative viability,SK-LU-1; first compound 0.04 µM,1.11
same,relative viability,SK-LU-1; first compound 0.1265 µM,1.17
same,relative viability,SK-LU-1; first compound 0.4 µM,1.15
same,relative viability,SK-LU-1; first compound 1.265 µM,0.693
same,relative viability,UMC-11; first compound 0.04 µM,0.747
same,relative viability,UMC-11; first compound 0.1265 µM,0.764
same,relative viability,UMC-11; first compound 0.4 µM,0.666
same,relative viability,UMC-11; first compound 1.265 µM,0.519
NC(=O)Nc1cc(-c2cccc(F)c2)sc1C(=O)N[C@H]1CCCNC1 [AZD7762] + CC(C)C[C@H](NC(=O)[C@H](Cc1ccccc1)NC(=O)c1cnccn1)B(O)O [Bortezomib] (partner 0.002 µM),relative viability,A-427; first compound 0.01 µM,0.988
same,relative viability,A-427; first compound 0.03162 µM,0.965
same,relative viability,A-427; first compound 0.1 µM,0.989
same,relative viability,A-427; first compound 0.3162 µM,1.04
same,relative viability,A-427; first compound 1 µM,0.272
same,relative viability,COR-L 105; first compound 0.01 µM,0.904
same,relative viability,COR-L 105; first compound 0.03162 µM,0.803
same,relative viability,COR-L 105; first compound 0.1 µM,0.836
same,relative viability,COR-L 105; first compound 0.3162 µM,0.389
same,relative viability,COR-L 105; first compound 1 µM,0.356
same,relative viability,EPLC-272H; first compound 0.01 µM,0.81
same,relative viability,EPLC-272H; first compound 0.03162 µM,1.01
same,relative viability,EPLC-272H; first compound 0.1 µM,1.02
same,relative viability,EPLC-272H; first compound 0.3162 µM,0.828
same,relative viability,EPLC-272H; first compound 1 µM,0.992
same,relative viability,HCC-366; first compound 0.01 µM,1.1
same,relative viability,HCC-366; first compound 0.03162 µM,1.04
same,relative viability,HCC-366; first compound 0.1 µM,1.03
same,relative viability,HCC-366; first compound 0.3162 µM,0.62
same,relative viability,HCC-366; first compound 1 µM,0.0941
same,relative viability,HCC-78; first compound 0.01 µM,0.561
same,relative viability,HCC-78; first compound 0.03162 µM,0.528
same,relative viability,HCC-78; first compound 0.1 µM,0.526
same,relative viability,HCC-78; first compound 0.3162 µM,0.62
same,relative viability,HCC-78; first compound 1 µM,0.391
same,relative viability,HOP-62; first compound 0.01 µM,0.817
same,relative viability,HOP-62; first compound 0.03162 µM,0.605
same,relative viability,HOP-62; first compound 0.1 µM,0.491
same,relative viability,HOP-62; first compound 0.3162 µM,0.725
same,relative viability,HOP-62; first compound 1 µM,0.43
same,relative viability,LC-2-ad; first compound 0.01 µM,1.04
same,relative viability,LC-2-ad; first compound 0.03162 µM,1.14
same,relative viability,LC-2-ad; first compound 0.1 µM,0.975
same,relative viability,LC-2-ad; first compound 0.3162 µM,0.909
same,relative viability,LC-2-ad; first compound 1 µM,0.732
same,relative viability,LCLC-97TM1; first compound 0.01 µM,0.767
same,relative viability,LCLC-97TM1; first compound 0.03162 µM,0.822
same,relative viability,LCLC-97TM1; first compound 0.1 µM,0.737
same,relative viability,LCLC-97TM1; first compound 0.3162 µM,0.335
same,relative viability,LCLC-97TM1; first compound 1 µM,0.634
same,relative viability,LU99A; first compound 0.01 µM,1.09
same,relative viability,LU99A; first compound 0.03162 µM,1.24
same,relative viability,LU99A; first compound 0.1 µM,1.25
same,relative viability,LU99A; first compound 0.3162 µM,0.867
same,relative viability,LU99A; first compound 1 µM,0.402
same,relative viability,LXF-289; first compound 0.01 µM,0.918
same,relative viability,LXF-289; first compound 0.03162 µM,0.947
same,relative viability,LXF-289; first compound 0.1 µM,1.07
same,relative viability,LXF-289; first compound 0.3162 µM,1
same,relative viability,LXF-289; first compound 1 µM,1.12
same,relative viability,NCI-H1755; first compound 0.01 µM,0.919
same,relative viability,NCI-H1755; first compound 0.03162 µM,1.03
same,relative viability,NCI-H1755; first compound 0.1 µM,1.05
same,relative viability,NCI-H1755; first compound 0.3162 µM,0.926
same,relative viability,NCI-H1755; first compound 1 µM,0.384
same,relative viability,NCI-H1792; first compound 0.01 µM,0.982
same,relative viability,NCI-H1792; first compound 0.03162 µM,0.941
same,relative viability,NCI-H1792; first compound 0.1 µM,0.925
same,relative viability,NCI-H1792; first compound 0.3162 µM,1.01
same,relative viability,NCI-H1792; first compound 1 µM,1.04
same,relative viability,NCI-H1915; first compound 0.01 µM,0.989
same,relative viability,NCI-H1915; first compound 0.03162 µM,0.99
same,relative viability,NCI-H1915; first compound 0.1 µM,1.03
same,relative viability,NCI-H1915; first compound 0.3162 µM,1.02
same,relative viability,NCI-H1915; first compound 1 µM,0.959
same,relative viability,NCI-H1975; first compound 0.01 µM,0.468
same,relative viability,NCI-H1975; first compound 0.03162 µM,0.44
same,relative viability,NCI-H1975; first compound 0.1 µM,0.417
same,relative viability,NCI-H1975; first compound 0.3162 µM,0.399
same,relative viability,NCI-H1975; first compound 1 µM,0.272
same,relative viability,NCI-H2085; first compound 0.01 µM,1.11
same,relative viability,NCI-H2085; first compound 0.03162 µM,1.14
same,relative viability,NCI-H2085; first compound 0.1 µM,1.11
same,relative viability,NCI-H2085; first compound 0.3162 µM,1.14
same,relative viability,NCI-H2085; first compound 1 µM,0.887
same,relative viability,NCI-H460; first compound 0.01 µM,1.18
same,relative viability,NCI-H460; first compound 0.03162 µM,1.04
same,relative viability,NCI-H460; first compound 0.1 µM,1.18
same,relative viability,NCI-H460; first compound 0.3162 µM,0.88
same,relative viability,NCI-H460; first compound 1 µM,0.0988
same,relative viability,SK-LU-1; first compound 0.01 µM,1.34
same,relative viability,SK-LU-1; first compound 0.03162 µM,1.05
same,relative viability,SK-LU-1; first compound 0.1 µM,0.853
same,relative viability,SK-LU-1; first compound 0.3162 µM,0.36
same,relative viability,SK-LU-1; first compound 1 µM,0.269
same,relative viability,UMC-11; first compound 0.01 µM,0.692
same,relative viability,UMC-11; first compound 0.03162 µM,0.585
same,relative viability,UMC-11; first compound 0.1 µM,0.409
same,relative viability,UMC-11; first compound 0.3162 µM,0.632
same,relative viability,UMC-11; first compound 1 µM,0.435
